Results published in ChEMBL document CHEMBL4513161, “CO-ADD screening of MMV (CH) - Pandemic Response Box” (2021).
In brackets after ≈: the same amount, converted by molar mass. Counter-ions that a name gives are not always drawn.

Columns and labels:
Candida albicans = assay: microbe, parasite or virus in culture; details: ATCC 90028, ASSAY_TEST Inhibition of Fungal Growth, detection method Absorption (OD530), plate type 384well, NBS, CORNING #3640
Description: Antifungal activity against Candida albicans ATCC 90028 (CO-ADD:FG_001); MIC in YNB media using NBS plates, by OD630

HEK293 = assay: cells; format: functional, Homo sapiens, ATCC CRL1573; details: Homo sapiens, ATCC CRL1573, HEK293; ASSAY_TEST Inhibition of Cell Viability; detection method Resazurin; Fluorescence (ex560/em590); MEDIA DMEM with 10% FBS; plate type 384well; TC; CORNING #3712; time 18 hr; read-out: CC50
Pseudomonas aeruginosa [1] = assay: microbe, parasite or virus in culture; details: ATCC 27853, 18 h, ASSAY_TEST Inhibition of Bacterial Growth, detection method Absorption (OD600), MEDIA CAMHB, plate type 384well, NBS, CORNING #3640
Description: Antibacterial activity against Pseudomonas aeruginosa ATCC 27853 (CO-ADD:GN_042); MIC in CAMBH media using NBS plates, by OD(600)

Pseudomonas aeruginosa [2] = assay: Antibacterial activity against Pseudomonas aeruginosa PAO397 [PAO1 d(mexAB-oprM) d(mexCD-oprJ) d(mexEF-oprN) d(mexJKL) d(mexXY) d(opmH)] (CO-ADD:GN_211); MIC in CAMBH media using NBS plates, by OD(600); format: functional; details: ASSAY_TEST Inhibition of Bacterial Growth, detection method Absorption (OD600), MEDIA CAMHB, plate type 384well, CORNING #3640, time 18 hr
Staphylococcus aureus = assay: microbe, parasite or virus in culture; details: ATCC 43300, 18 h, ASSAY_TEST Inhibition of Bacterial Growth, detection method Absorption (OD600), MEDIA CAMHB, plate type 384well, NBS, CORNING #3640
Description: Antibacterial activity against Staphylococcus aureus MRSA ATCC 43300 (CO-ADD:GP_020); MIC in CAMBH media, using NBS plates, by OD(600)

Klebsiella pneumoniae = assay: microbe, parasite or virus in culture; details: ATCC 700603, 18 h, ASSAY_TEST Inhibition of Bacterial Growth, detection method Absorption (OD600), MEDIA CAMHB, plate type 384well, NBS, CORNING #3640
Description: Antibacterial activity against Klebsiella pneumoniae MDR ATCC 70063 (CO-ADD:GN_003); MIC in CAMBH media using NBS plates, by OD(600)

Escherichia coli = assay: microbe, parasite or virus in culture; details: ATCC 25922, 18 h, ASSAY_TEST Inhibition of Bacterial Growth, detection method Absorption (OD600), MEDIA CAMHB, plate type 384well, NBS, CORNING #3640
Description: Antibacterial activity against Escherichia coli ATCC 25922 (CO-ADD:GN_001); MIC in CAMBH media using NBS plates, by OD(600)

Acinetobacter baumannii = assay: microbe, parasite or virus in culture; details: ATCC 19606, 18 h, ASSAY_TEST Inhibition of Bacterial Growth, detection method Absorption (OD600), MEDIA CAMHB, plate type 384well, NBS, CORNING #3640
Description: Antibacterial activity against Acinetobacter baumannii ATCC 19606 (CO-ADD:GN_034); MIC in CAMBH media using NBS plates, by OD600

Description for Cryptococcus neoformans: Antifungal activity against Cryptococcus neoformans H99 ATCC 208821 (CO-ADD:FG_002); MIC in YNB media using NBS plates, by Resazurin OD(600-570)

Q: With `Cc1cc(CCCOc2c(C)cc(-c3noc(C(F)(F)F)n3)cc2C)on1` [PLECONARIL] as the molecule, how does the MIC (Cryptococcus neoformans) read?
A: > 20 µM

Q: And the MIC (Candida albicans)?
A: > 20 µM

Q: What about the CC50 (HEK293) of the same molecule?
A: > 20 µM

Q: And the MIC (Pseudomonas aeruginosa [1])?
A: > 20 µM

Q: What about the MIC (Pseudomonas aeruginosa [2]) of the same molecule?
A: > 20 µM

Q: And the MIC (Staphylococcus aureus)?
A: > 20 µM

Q: What about the MIC (Klebsiella pneumoniae) of the same molecule?
A: > 20 µM

Q: What about the MIC (Escherichia coli) of the same molecule?
A: > 20 µM

Q: And the MIC (Acinetobacter baumannii)?
A: > 20 µM

Q: Which results are given for `c1cc(CN2CCCNCCNCCCNCC2)ccc1CN1CCCNCCNCCCNCC1` [PLERIXAFOR]?
A: MIC (Cryptococcus neoformans): > 20 µM; MIC (Candida albicans): > 20 µM; CC50 (HEK293): > 20 µM; MIC (Pseudomonas aeruginosa [1]): > 20 µM; MIC (Pseudomonas aeruginosa [2]): > 20 µM; MIC (Staphylococcus aureus): > 20 µM; MIC (Klebsiella pneumoniae): > 20 µM; MIC (Escherichia coli): > 20 µM; MIC (Acinetobacter baumannii): > 20 µM

Q: `O=[N+]([O-])c1cn2c(n1)OC[C@@H](OCc1ccc(OC(F)(F)F)cc1)C2` [PRETOMANID] was tested. Which MIC (Cryptococcus neoformans) did it give?
A: > 20 µM

Q: And the MIC (Candida albicans)?
A: > 20 µM

Q: What about the CC50 (HEK293) of the same molecule?
A: > 20 µM

Q: What about the MIC (Pseudomonas aeruginosa [1]) of the same molecule?
A: > 20 µM

Q: And the MIC (Pseudomonas aeruginosa [2])?
A: > 20 µM

Q: What about the MIC (Staphylococcus aureus) of the same molecule?
A: > 20 µM

Q: What about the MIC (Klebsiella pneumoniae) of the same molecule?
A: > 20 µM

Q: What about the MIC (Escherichia coli) of the same molecule?
A: > 20 µM

Q: And the MIC (Acinetobacter baumannii)?
A: > 20 µM

Q: `NC(=O)c1cnccn1` [PYRAZINAMIDE] was tested. Which MIC (Cryptococcus neoformans) did it give?
A: > 20 µM

Q: What about the MIC (Candida albicans) of the same molecule?
A: > 20 µM

Q: And the CC50 (HEK293)?
A: > 20 µM

Q: And the MIC (Pseudomonas aeruginosa [1])?
A: > 20 µM

Q: And the MIC (Pseudomonas aeruginosa [2])?
A: > 20 µM

Q: And the MIC (Staphylococcus aureus)?
A: > 20 µM

Q: And the MIC (Klebsiella pneumoniae)?
A: > 20 µM

Q: What about the MIC (Escherichia coli) of the same molecule?
A: > 20 µM

Q: And the MIC (Acinetobacter baumannii)?
A: > 20 µM

Q: For `C[C@@H](c1nc(-c2ccc(C#N)cc2)cs1)[C@](O)(Cn1cncn1)c1ccc(F)cc1F` [RAVUCONAZOLE], which MIC (Cryptococcus neoformans) is on record?
A: 0.312 µM (≈ 0.137 µg/mL)

Q: And the MIC (Candida albicans)?
A: ≤ 0.156 µM

Q: What about the CC50 (HEK293) of the same molecule?
A: > 20 µM

Q: What about the MIC (Pseudomonas aeruginosa [1]) of the same molecule?
A: > 20 µM

Q: What about the MIC (Pseudomonas aeruginosa [2]) of the same molecule?
A: > 20 µM

Q: And the MIC (Staphylococcus aureus)?
A: > 20 µM

Q: And the MIC (Klebsiella pneumoniae)?
A: > 20 µM

Q: What about the MIC (Escherichia coli) of the same molecule?
A: > 20 µM

Q: And the MIC (Acinetobacter baumannii)?
A: > 20 µM

Q: With `CCOCc1nc2c(N)nc3ccccc3c2n1CC(C)(C)O` [RESIQUIMOD] as the molecule, how does the MIC (Cryptococcus neoformans) read?
A: > 20 µM

Q: What about the MIC (Candida albicans) of the same molecule?
A: > 20 µM

Q: What about the CC50 (HEK293) of the same molecule?
A: > 20 µM

Q: And the MIC (Pseudomonas aeruginosa [1])?
A: > 20 µM

Q: What about the MIC (Pseudomonas aeruginosa [2]) of the same molecule?
A: > 20 µM

Q: And the MIC (Staphylococcus aureus)?
A: > 20 µM

Q: And the MIC (Klebsiella pneumoniae)?
A: > 20 µM

Q: What about the MIC (Escherichia coli) of the same molecule?
A: > 20 µM

Q: What about the MIC (Acinetobacter baumannii) of the same molecule?
A: > 20 µM

Q: `C=C[C@]1(C)C[C@@H](OC(=O)CS[C@@H]2C[C@H]3CC[C@@H](C2)N3C)[C@]2(C)[C@H](C)CC[C@]3(CCC(=O)[C@H]32)[C@@H](C)[C@@H]1O` [RETAPAMULIN] was tested. Which MIC (Cryptococcus neoformans) did it give?
A: > 20 µM

Q: And the MIC (Candida albicans)?
A: > 20 µM

Q: What about the CC50 (HEK293) of the same molecule?
A: > 20 µM

Q: What about the MIC (Pseudomonas aeruginosa [1]) of the same molecule?
A: > 20 µM

Q: What about the MIC (Pseudomonas aeruginosa [2]) of the same molecule?
A: 2.5 µM (≈ 1.29 µg/mL)

Q: What about the MIC (Staphylococcus aureus) of the same molecule?
A: ≤ 0.156 µM

Q: What about the MIC (Klebsiella pneumoniae) of the same molecule?
A: > 20 µM

Q: And the MIC (Escherichia coli)?
A: > 20 µM

Q: What about the MIC (Acinetobacter baumannii) of the same molecule?
A: > 20 µM

Q: Which MIC (Cryptococcus neoformans) does the source give for `Cc1nc(Nc2ccc(F)cc2)nc(N2CCc3ccccc3C2C)c1C` (configuration not stated) [REVAPRAZAN] here?
A: > 20 µM

Q: What about the MIC (Candida albicans) of the same molecule?
A: > 20 µM

Q: And the CC50 (HEK293)?
A: > 20 µM

Q: And the MIC (Pseudomonas aeruginosa [1])?
A: > 20 µM

Q: What about the MIC (Pseudomonas aeruginosa [2]) of the same molecule?
A: > 20 µM

Q: What about the MIC (Staphylococcus aureus) of the same molecule?
A: > 20 µM

Q: And the MIC (Klebsiella pneumoniae)?
A: > 20 µM

Q: And the MIC (Escherichia coli)?
A: > 20 µM

Q: And the MIC (Acinetobacter baumannii)?
A: > 20 µM

Q: With `CC(N)C12CC3CC(CC(C3)C1)C2` (configuration not stated) [RIMANTADINE HYDROCHLORIDE] as the molecule, how does the MIC (Cryptococcus neoformans) read?
A: > 20 µM

Q: And the MIC (Candida albicans)?
A: > 20 µM

Q: And the CC50 (HEK293)?
A: > 20 µM

Q: And the MIC (Pseudomonas aeruginosa [1])?
A: > 20 µM

Q: And the MIC (Pseudomonas aeruginosa [2])?
A: > 20 µM

Q: What about the MIC (Staphylococcus aureus) of the same molecule?
A: > 20 µM

Q: And the MIC (Klebsiella pneumoniae)?
A: > 20 µM

Q: What about the MIC (Escherichia coli) of the same molecule?
A: > 20 µM

Q: What about the MIC (Acinetobacter baumannii) of the same molecule?
A: > 20 µM

Q: For `COc1ccc(C2CNC(=O)C2)cc1OC1CCCC1` (configuration not stated) [ROLIPRAM], which MIC (Cryptococcus neoformans) is on record?
A: > 20 µM

Q: And the MIC (Candida albicans)?
A: > 20 µM

Q: And the CC50 (HEK293)?
A: > 20 µM

Q: What about the MIC (Pseudomonas aeruginosa [1]) of the same molecule?
A: > 20 µM

Q: What about the MIC (Pseudomonas aeruginosa [2]) of the same molecule?
A: > 20 µM

Q: What about the MIC (Staphylococcus aureus) of the same molecule?
A: > 20 µM

Q: And the MIC (Klebsiella pneumoniae)?
A: > 20 µM

Q: And the MIC (Escherichia coli)?
A: > 20 µM

Q: What about the MIC (Acinetobacter baumannii) of the same molecule?
A: > 20 µM

Q: Which MIC (Cryptococcus neoformans) does the source give for `CC[C@@]1(O)C(=O)OCc2c1cc1n(c2=O)Cc2cc3c([N+](=O)[O-])cccc3nc2-1` [RUBITECAN] here?
A: > 20 µM

Q: And the MIC (Candida albicans)?
A: > 20 µM

Q: What about the CC50 (HEK293) of the same molecule?
A: 0.695 µM

Q: What about the MIC (Pseudomonas aeruginosa [1]) of the same molecule?
A: > 20 µM

Q: And the MIC (Pseudomonas aeruginosa [2])?
A: > 20 µM

Q: What about the MIC (Staphylococcus aureus) of the same molecule?
A: > 20 µM

Q: What about the MIC (Klebsiella pneumoniae) of the same molecule?
A: > 20 µM

Q: And the MIC (Escherichia coli)?
A: > 20 µM

Q: What about the MIC (Acinetobacter baumannii) of the same molecule?
A: > 20 µM

Q: Which results are given for `OCCC#Cc1nc(-c2ccc(F)cc2)c(-c2ccncc2)n1CCCc1ccccc1` [RWJ-67657]?
A: MIC (Cryptococcus neoformans): > 20 µM; MIC (Candida albicans): > 20 µM; CC50 (HEK293): > 20 µM; MIC (Pseudomonas aeruginosa [1]): > 20 µM; MIC (Pseudomonas aeruginosa [2]): > 20 µM; MIC (Staphylococcus aureus): > 20 µM; MIC (Klebsiella pneumoniae): > 20 µM; MIC (Escherichia coli): > 20 µM; MIC (Acinetobacter baumannii): > 20 µM

Q: `Cc1ncc([N+](=O)[O-])n1CC(C)O` (configuration not stated) [SECNIDAZOLE] was tested. Which MIC (Cryptococcus neoformans) did it give?
A: > 20 µM

Q: And the MIC (Candida albicans)?
A: > 20 µM

Q: What about the CC50 (HEK293) of the same molecule?
A: > 20 µM

Q: What about the MIC (Pseudomonas aeruginosa [1]) of the same molecule?
A: > 20 µM

Q: And the MIC (Pseudomonas aeruginosa [2])?
A: > 20 µM

Q: And the MIC (Staphylococcus aureus)?
A: > 20 µM

Q: And the MIC (Klebsiella pneumoniae)?
A: > 20 µM

Q: And the MIC (Escherichia coli)?
A: > 20 µM

Q: What about the MIC (Acinetobacter baumannii) of the same molecule?
A: > 20 µM
